Assay results as given in ChEMBL document CHEMBL1944578, “Synthesis and anticonvulsant activity of novel 2,6-diketopiperazine derivatives. Part 2: Perhydropyrido[1,2-a]pyrazines” (Eur J Med Chem, 2012).
Calls of active or inactive are those of the source.

Experiments:
[1] = test system: Rattus norvegicus; experiment: Neurotoxicity in Sprague-Dawley rat assessed as neurological impairment at 30 mg/kg, po measured after 1 hr; assay type: toxicity, organism-based; set-up: dose 30 mg/kg, route oral; settings: in vivo
[2] = test system: Mus musculus; experiment: Anticonvulsant activity in Carworth farms No.1 albino mouse assessed as protection against 6 Hz electric current-induced seizure at 100 mg/kg, ip measured after 4 hrs; assay type: functional, organism-based; set-up: dose 100 mg/kg
[3] = test system: Mus musculus; experiment: Anticonvulsant activity in Carworth farms No.1 albino mouse assessed as protection against maximum electroshock at 30 mg/kg, ip measured after 4 hrs; assay type: functional, organism-based; set-up: dose 30 mg/kg
[4] = test system: Mus musculus; experiment: Anticonvulsant activity in Carworth farms No.1 albino mouse assessed as protection against maximum electroshock at 100 mg/kg, ip measured after 4 hrs; assay type: functional, organism-based; set-up: dose 100 mg/kg
[5] = species on record: Mus musculus; experiment: Anticonvulsant activity in electric shock-induced Carworth farms No.1 albino mouse assessed as time of peak effect; assay type: functional
[6] = test system: Mus musculus; experiment: Anticonvulsant activity in Carworth farms No.1 albino mouse assessed as protection against subcutaneous metrazole-induced seizures at 30 mg/kg, ip measured after 4 hrs; assay type: functional, organism-based; set-up: dose 30 mg/kg
[7] = test system: Mus musculus; experiment: Neurotoxicity in Carworth farms No.1 albino mouse assessed as neurological impairment at 100 mg/kg, ip measured after 0.25 hrs; assay type: toxicity, organism-based; set-up: dose 100 mg/kg, route intraperitoneal; settings: in vivo
[8] = test system: Mus musculus; experiment: Anticonvulsant activity in Carworth farms No.1 albino mouse assessed as protection against 6 Hz electric current-induced seizure at 100 mg/kg, ip measured after 1 hrs; assay type: functional, organism-based; set-up: dose 100 mg/kg
[9] = test system: Mus musculus; experiment: Anticonvulsant activity in Carworth farms No.1 albino mouse assessed as protection against subcutaneous metrazole-induced seizures at 30 mg/kg, ip measured after 0.5 hrs; assay type: functional, organism-based; set-up: dose 30 mg/kg
[10] = test system: Mus musculus; experiment: Neurotoxicity in Carworth farms No.1 albino mouse assessed as neurological impairment at 100 mg/kg, ip measured after 1 hr; assay type: toxicity, organism-based; set-up: dose 100 mg/kg, route intraperitoneal; settings: in vivo
[11] = test system: Mus musculus; experiment: Anticonvulsant activity in ip dosed Carworth farms No.1 albino mouse assessed as protection against 6 Hz electric current-induced seizure measured after 0.25 hrs; assay type: functional
[12] = test system: Rattus norvegicus; experiment: Anticonvulsant activity in Sprague-Dawley rat assessed as protection against maximum electroshock at 30 mg/kg, po measured after 4 hrs; assay type: functional, organism-based; set-up: dose 30 mg/kg
[13] = test system: Rattus norvegicus; experiment: Anticonvulsant activity in Sprague-Dawley rat assessed as protection against maximum electroshock at 30 mg/kg, po measured after 1 hr; assay type: functional, organism-based; set-up: dose 30 mg/kg
[14] = test system: Mus musculus; experiment: Neurotoxicity in Carworth farms No.1 albino mouse assessed as neurological impairment at 100 mg/kg, ip measured after 0.5 hrs; assay type: toxicity, organism-based; set-up: dose 100 mg/kg, route intraperitoneal; settings: in vivo
[15] = test system: Rattus norvegicus; experiment: Toxicity in Sprague-Dawley rat assessed as body weight change in protected animals at 900 mg/kg, ip measured after 0.5 hrs; assay type: organism-based; set-up: dose 900 mg/kg, route intraperitoneal; settings: in vivo
[16] = test system: Mus musculus; experiment: Anticonvulsant activity in Carworth farms No.1 albino mouse assessed as protection against subcutaneous metrazole-induced seizures at 100 mg/kg, ip measured after 4 hrs; assay type: functional, organism-based; set-up: dose 100 mg/kg
[17] = test system: Mus musculus; experiment: Anticonvulsant activity in Carworth farms No.1 albino mouse assessed as protection against subcutaneous metrazole-induced seizures at 100 mg/kg, ip measured after 0.5 hrs; assay type: functional, organism-based; set-up: dose 100 mg/kg
[18] = test system: Rattus norvegicus; experiment: Anticonvulsant activity in Sprague-Dawley rat assessed as protection against maximum electroshock at 30 mg/kg, po measured after 0.5 hrs; assay type: functional, organism-based; set-up: dose 30 mg/kg
[19] = test system: Rattus norvegicus; experiment: Neurotoxicity in Sprague-Dawley rat assessed as neurological impairment at 30 mg/kg, po measured after 0.5 hrs; assay type: toxicity, organism-based; set-up: dose 30 mg/kg, route oral; settings: in vivo
[20] = test system: Mus musculus; experiment: Anticonvulsant activity in Carworth farms No.1 albino mouse assessed as protection against subcutaneous metrazole-induced seizures at 300 mg/kg, ip measured after 0.5 hrs; assay type: functional, organism-based; set-up: dose 300 mg/kg
[21] = test system: Mus musculus; experiment: Anticonvulsant activity in Carworth farms No.1 albino mouse assessed as protection against subcutaneous metrazole-induced seizures at 300 mg/kg, ip measured after 4 hrs; assay type: functional, organism-based; set-up: dose 300 mg/kg
[22] = test system: Rattus norvegicus; experiment: Toxicity in Sprague-Dawley rat assessed as body weight change in unprotected animals at 900 mg/kg, ip measured after 0.5 hrs; assay type: organism-based; set-up: dose 900 mg/kg, route intraperitoneal; settings: in vivo
[23] = test system: Mus musculus; experiment: Anticonvulsant activity in Carworth farms No.1 albino mouse assessed as protection against maximum electroshock at 100 mg/kg, ip measured after 0.5 hrs; assay type: functional, organism-based; set-up: dose 100 mg/kg
[24] = test system: Mus musculus; experiment: Anticonvulsant activity in Carworth farms No.1 albino mouse assessed as protection against 6 Hz electric current-induced seizure at 100 mg/kg, ip measured after 0.5 hrs; assay type: functional, organism-based; set-up: dose 100 mg/kg
[25] = test system: Mus musculus; experiment: Anticonvulsant activity in Carworth farms No.1 albino mouse assessed as protection against maximum electroshock at 300 mg/kg, ip measured after 4 hrs; assay type: functional, organism-based; set-up: dose 300 mg/kg
[26] = test system: Mus musculus; experiment: Neurotoxicity in Carworth farms No.1 albino mouse assessed as neurological impairment at 100 mg/kg, ip measured after 2 hr; assay type: toxicity, organism-based; set-up: dose 100 mg/kg, route intraperitoneal; settings: in vivo
[27] = test system: Rattus norvegicus; experiment: Neurotoxicity in Sprague-Dawley rat assessed as neurological impairment at 30 mg/kg, po measured after 2 hrs; assay type: toxicity, organism-based; set-up: dose 30 mg/kg, route oral; settings: in vivo
[28] = test system: Mus musculus; experiment: Neurotoxicity in Carworth farms No.1 albino mouse assessed as neurological impairment at 100 mg/kg, ip measured after 4 hrs; assay type: toxicity, organism-based; set-up: dose 100 mg/kg, route intraperitoneal; settings: in vivo
[29] = test system: Rattus norvegicus; experiment: Toxicity in Sprague-Dawley rat assessed as mortality at 900 mg/kg, ip measured after 0.5 hrs; assay type: organism-based; set-up: dose 900 mg/kg, route intraperitoneal; settings: in vivo
[30] = test system: Mus musculus; experiment: Neurotoxicity in Carworth farms No.1 albino mouse assessed as neurological impairment at 30 mg/kg, ip measured after 4 hrs; assay type: toxicity, organism-based; set-up: dose 30 mg/kg, route intraperitoneal; settings: in vivo
[31] = test system: Rattus norvegicus; experiment: Neurotoxicity in Sprague-Dawley rat assessed as neurological impairment at 30 mg/kg, po measured after 0.25 hrs; assay type: toxicity, organism-based; set-up: dose 30 mg/kg, route oral; settings: in vivo
[32] = test system: Mus musculus; experiment: Anticonvulsant activity in Carworth farms No.1 albino mouse assessed as protection against 6 Hz electric current-induced seizure at 100 mg/kg, ip measured after 0.25 hrs; assay type: functional, organism-based; set-up: dose 100 mg/kg
[33] = test system: Mus musculus; experiment: Anticonvulsant activity in Carworth farms No.1 albino mouse assessed as protection against maximum electroshock at 300 mg/kg, ip measured after 0.5 hrs; assay type: functional, organism-based; set-up: dose 300 mg/kg
[34] = test system: Rattus norvegicus; experiment: Neurotoxicity in Sprague-Dawley rat assessed as sedation at 900 mg/kg, ip measured after 0.5 hrs; assay type: toxicity, organism-based; set-up: dose 900 mg/kg, route intraperitoneal; settings: in vivo
[35] = test system: Mus musculus; experiment: Neurotoxicity in Carworth farms No.1 albino mouse assessed as neurological impairment at 300 mg/kg, ip measured after 0.5 hrs; assay type: toxicity, organism-based; set-up: dose 300 mg/kg, route intraperitoneal; settings: in vivo
[36] = test system: Mus musculus; experiment: Anticonvulsant activity in Carworth farms No.1 albino mouse assessed as protection against maximum electroshock at 30 mg/kg, ip measured after 0.5 hrs; assay type: functional, organism-based; set-up: dose 30 mg/kg
[37] = test system: Rattus norvegicus; experiment: Neurotoxicity in Sprague-Dawley rat assessed as neurological impairment at 30 mg/kg, po measured after 4 hrs; assay type: toxicity, organism-based; set-up: dose 30 mg/kg, route oral; settings: in vivo
[38] = test system: Mus musculus; experiment: Neurotoxicity in Carworth farms No.1 albino mouse assessed as neurological impairment at 30 mg/kg, ip measured after 0.5 hrs; assay type: toxicity, organism-based; set-up: dose 30 mg/kg, route intraperitoneal; settings: in vivo
[39] = test system: Rattus norvegicus; experiment: Anticonvulsant activity in Sprague-Dawley rat assessed as protection against pilocarpine-induced status at 900 mg/kg, ip measured after 0.5 hrs; assay type: functional, organism-based; set-up: dose 900 mg/kg
[40] = test system: Mus musculus; experiment: Neurotoxicity in Carworth farms No.1 albino mouse assessed as neurological impairment at 300 mg/kg, ip measured after 4 hrs; assay type: toxicity, organism-based; set-up: dose 300 mg/kg, route intraperitoneal; settings: in vivo
[41] = test system: Rattus norvegicus; experiment: Anticonvulsant activity in Sprague-Dawley rat assessed as protection against maximum electroshock at 30 mg/kg, po measured after 2 hrs; assay type: functional, organism-based; set-up: dose 30 mg/kg
[42] = test system: Rattus norvegicus; experiment: Anticonvulsant activity in Sprague-Dawley rat assessed as protection against maximum electroshock at 30 mg/kg, po measured after 0.25 hrs; assay type: functional, organism-based; set-up: dose 30 mg/kg
[43] = test system: Mus musculus; experiment: Anticonvulsant activity in Carworth farms No.1 albino mouse assessed as protection against 6 Hz electric current-induced seizure at 100 mg/kg, ip measured after 2 hrs; assay type: functional, organism-based; set-up: dose 100 mg/kg

O=C1NC(=O)[C@@H](c2ccccc2)N2CCCC[C@H]12
inactive: Activity [2] | Activity [3] | Activity [4] | Activity [6] | Activity [9] | Activity [13] | Activity [16] | Activity [17] | Activity [18] | Activity [20] | Activity [21] | Activity [23] | Activity [25] | Activity [33] | Activity [36] | Activity [41] | Activity [42]
-20 g: Activity [22]
-17.5 g: Activity [15]
Toxic: Activity [29] | Activity [34]
0.25 h: Time [5]
active: Activity [8] | Activity [12] | Activity [24] | Activity [32] | Activity [39] | Activity [43]
Non-toxic: Activity [1] | Activity [7] | Activity [10] | Activity [14] | Activity [19] | Activity [26] | Activity [27] | Activity [28] | Activity [30] | Activity [31] | Activity [35] | Activity [37] | Activity [38] | Activity [40]
38.2 mg/kg: ED50 [11]
